Experimental data taken from ChEMBL document CHEMBL5634090, “Design of phenothiazine-based cationic amphiphilic derivatives incorporating arginine residues: Potential membrane-active broad-spectrum antimicrobials combating pathogenic bacteria in vitro and in vivo” (Eur J Med Chem, 2023).
Converted amounts (≈) assume the structure as drawn.

How the values were obtained:
[1] = Selectivity index, ratio of CC50 for cytotoxicity against mouse NCTC clone 929 cells to MIC for antibacterial activity against Klebsiella pneumoniae ATCC 14581; format: toxicity, cell-based; details: read-out: Selectivity Index
[2] = Selectivity index, ratio of CC50 for cytotoxicity against mouse NCTC clone 929 cells to MIC for antibacterial activity against Klebsiella pneumoniae ATCC 10031; format: toxicity, cell-based; details: read-out: Selectivity Index
Klebsiella pneumoniae [3] = experiment: Antibacterial activity against Klebsiella pneumoniae ATCC 14581 by microbroth dilution assay; format: functional
[4] = Cytotoxicity against HEK293 cells assessed as cell survival rate at 50 ug/ml by CCK-8 assay relative to control; format: toxicity, cell-based; details: human, at 50 µg/mL, read-out: Activity
[5] = Cytotoxicity against mouse NCTC clone 929 cells assessed as cell survival rate at 25 ug/ml by CCK-8 assay relative to control; format: toxicity, cell-based; details: NCTC clone 929 (L929) cells, at 25 µg/mL, read-out: Activity
[6] = Cytotoxicity against HEK293 cells assessed as cell survival rate at 12.5 ug/ml by CCK-8 assay relative to control; format: toxicity, cell-based; details: human, at 12.5 µg/mL, read-out: Activity
[7] = Selectivity index, ratio of CC50 for cytotoxicity against mouse NCTC clone 929 cells to MIC for antibacterial activity against Staphylococcus aureus ATCC 29213; format: toxicity, cell-based; details: read-out: Selectivity Index
[8] = Selectivity index, ratio of CC50 for cytotoxicity against mouse NCTC clone 929 cells to MIC for antibacterial activity against Escherichia coli ATCC 25922; format: toxicity, cell-based; details: read-out: Selectivity Index
[9] = Selectivity index, ratio of CC50 for cytotoxicity against HEK293 cells to MIC for antibacterial activity against Staphylococcus aureus ATCC 29213; format: toxicity, cell-based; details: human, read-out: Selectivity Index
[10] = Selectivity index, ratio of CC50 for cytotoxicity against HEK293 cells to MIC for antibacterial activity against Escherichia coli ATCC 25922; format: toxicity, cell-based; details: human, read-out: Selectivity Index
Staphylococcus aureus [11] = experiment: Antibacterial activity against Staphylococcus aureus ATCC 29213 in presence of 140 mmol/L Na+ by broth microdilution method; format: functional
Staphylococcus aureus [12] = experiment: Antibacterial activity against Staphylococcus aureus ATCC 29213 in presence of 2.5 mmol/L Ca2+ by broth microdilution method; format: functional
Staphylococcus aureus [13] = experiment: Antibacterial activity against methicillin resistant Staphylococcus aureus N315 in presence of 19 umol/L Zn2+ by broth microdilution method; format: functional
Staphylococcus aureus [14] = experiment: Antibacterial activity against methicillin resistant Staphylococcus aureus NCTC 10442 in presence of 140 mmol/L Na+ by broth microdilution method; format: functional
Staphylococcus aureus [15] = experiment: Antibacterial activity against methicillin resistant Staphylococcus aureus NCTC 10442 in presence of 4.5 mmol/L K+ by broth microdilution method; format: functional
Staphylococcus aureus [16] = experiment: Antibacterial activity against methicillin resistant Staphylococcus aureus NCTC 10442 in presence of 2.5 mmol/L Ca2+ by broth microdilution method; format: functional
Staphylococcus aureus [17] = experiment: Antibacterial activity against methicillin resistant Staphylococcus aureus NCTC 10442 in presence of 1 mmol/L Mg2+ by broth microdilution method; format: functional
Escherichia coli = experiment: Antibacterial activity against Escherichia coli ATCC 25922 in presence of 4.5 mmol/L K+ by broth microdilution method; format: functional
Klebsiella pneumoniae [18] = experiment: Antibacterial activity against Klebsiella pneumoniae ATCC 10031 in presence of 140 mmol/L Na+ by broth microdilution method; format: functional
Klebsiella pneumoniae [19] = experiment: Antibacterial activity against Klebsiella pneumoniae ATCC 10031 in presence of 19 umol/L Zn2+ by broth microdilution method; format: functional
Klebsiella pneumoniae [20] = experiment: Antibacterial activity against Klebsiella pneumoniae ATCC 10031 in presence of 20 umol/L Fe3+ by broth microdilution method; format: functional
Klebsiella pneumoniae [21] = experiment: Antibacterial activity against Klebsiella pneumoniae ATCC 14581 in presence of 2.5 mmol/L Ca2+ by broth microdilution method; format: functional
Klebsiella pneumoniae [22] = experiment: Antibacterial activity against Klebsiella pneumoniae ATCC 14581 in presence of 1 mmol/L Mg2+ by broth microdilution method; format: functional
Pseudomonas aeruginosa [23] = experiment: Antibacterial activity against Pseudomonas aeruginosa ATCC 9027 in presence of 140 mmol/L Na+ by broth microdilution method; format: functional
Pseudomonas aeruginosa [24] = experiment: Antibacterial activity against Pseudomonas aeruginosa ATCC 9027 in presence of 19 umol/L Fe2+ by broth microdilution method; format: functional
Pseudomonas aeruginosa [25] = experiment: Antibacterial activity against Pseudomonas aeruginosa ATCC 9027 in presence of 19 umol/L Zn2+ by broth microdilution method; format: functional
Pseudomonas aeruginosa [26] = experiment: Antibacterial activity against Pseudomonas aeruginosa ATCC 9027 in presence of 20 umol/L Fe3+ by broth microdilution method; format: functional
Staphylococcus aureus [27] = experiment: Antibacterial activity against Staphylococcus aureus ATCC 29213 assessed as cell membrane disruption by SYTOX Green assay; format: functional, organism-based
Klebsiella pneumoniae [28] = experiment: Antibacterial activity against Klebsiella pneumoniae ATCC 10031 assessed as cell membrane disruption by SYTOX Green assay; format: functional, organism-based
Staphylococcus aureus [29] = experiment: Inhibition of biofilm formation in Staphylococcus aureus ATCC 29213 by crystal violet staining assay; format: functional, organism-based; details: dose 0.39-12.5 µg/ml
Klebsiella pneumoniae [30] = experiment: Inhibition of biofilm formation in Klebsiella pneumoniae ATCC 10031 by crystal violet staining assay; format: functional, organism-based; details: dose 0.78-25 µg/ml
Staphylococcus aureus [31] = experiment: Inhibition of biofilm formation in Staphylococcus aureus ATCC 29213 at 0.39 ug/ml by crystal violet staining assay relative to control; format: functional
Staphylococcus aureus [32] = experiment: Inhibition of biofilm formation in Staphylococcus aureus ATCC 29213 at 0.78 ug/ml by crystal violet staining assay relative to control; format: functional
Staphylococcus aureus [33] = experiment: Inhibition of biofilm formation in Staphylococcus aureus ATCC 29213 at 12.5 ug/ml by crystal violet staining assay relative to control; format: functional
Klebsiella pneumoniae [34] = experiment: Inhibition of biofilm formation in Klebsiella pneumoniae ATCC 10031 at 12.5 ug/ml by crystal violet staining assay relative to control; format: functional
Staphylococcus aureus [35] = experiment: Antibiofilm activity against 24 hrs preformed biofilm in Staphylococcus aureus ATCC 29213 assessed as reduction in biofilm viability at 0.39 ug/ml relative to control; format: functional; details: dose 0.39 µg/ml
Staphylococcus aureus [36] = experiment: Antibiofilm activity against 24 hrs preformed biofilm in Staphylococcus aureus ATCC 29213 assessed as reduction in biofilm viability at […] ug/ml relative to control; format: functional; details: dose […] microg/ml; 1.56 ug/mL
Staphylococcus aureus [37] = experiment: Antibiofilm activity against 24 hrs preformed biofilm in Staphylococcus aureus ATCC 29213 assessed as reduction in biofilm viability at 12.5 ug/ml relative to control; format: functional; details: dose 12.5 µg/ml
Klebsiella pneumoniae [38] = experiment: Antibiofilm activity against 24 hrs preformed biofilm in Klebsiella pneumoniae ATCC 10031 assessed as reduction in biofilm viability at 6.25 ug/ml relative to control; format: functional; details: dose 6.25 µg/ml
Klebsiella pneumoniae [39] = experiment: Antibiofilm activity against 24 hrs preformed biofilm in Klebsiella pneumoniae ATCC 10031 assessed as reduction in biofilm viability at 12.5 ug/ml relative to control; format: functional; details: dose 12.5 µg/ml
Klebsiella pneumoniae [40] = experiment: Antibiofilm activity against 24 hrs preformed biofilm in Klebsiella pneumoniae ATCC 10031 assessed as reduction in biofilm viability at 25 ug/ml relative to control; format: functional; details: dose 25 µg/ml

SMILES: CCCCCCCN1c2ccccc2Sc2ccc(OCC(=O)N[C@@H](CCCNC(=N)N)C(=O)N[C@@H](CCCNC(=N)N)C(N)=O)cc21
- selectivity ratio [1]: 8
- selectivity ratio [2]: 8
- MIC (Klebsiella pneumoniae [3]): 3.12 µg/mL (≈ 4.58 µM)
- viability at 50 ug/ml [4]: 56%
- viability at 25 ug/ml [5]: 70.8%
- viability at 12.5 ug/ml [6]: 80.6%
- selectivity ratio [7]: 8
- selectivity ratio [8]: 8
- selectivity ratio [9]: 8
- selectivity ratio [10]: 8
- MIC (Staphylococcus aureus [11]): 1.56 µg/mL
- MIC (Staphylococcus aureus [12]): 3.12 µg/mL
- MIC (Staphylococcus aureus [13]): 1.56 µg/mL
- MIC (Staphylococcus aureus [14]): 1.56 µg/mL
- MIC (Staphylococcus aureus [15]): 1.56 µg/mL
- MIC (Staphylococcus aureus [16]): 3.12 µg/mL
- MIC (Staphylococcus aureus [17]): 3.12 µg/mL
- MIC (Escherichia coli): 3.12 µg/mL
- MIC (Klebsiella pneumoniae [18]): 3.12 µg/mL
- MIC (Klebsiella pneumoniae [19]): 6.25 µg/mL
- MIC (Klebsiella pneumoniae [20]): 6.25 µg/mL
- MIC (Klebsiella pneumoniae [21]): 3.12 µg/mL
- MIC (Klebsiella pneumoniae [22]): 3.12 µg/mL
- MIC (Pseudomonas aeruginosa [23]): 6.25 µg/mL
- MIC (Pseudomonas aeruginosa [24]): 6.25 µg/mL
- MIC (Pseudomonas aeruginosa [25]): 3.12 µg/mL
- MIC (Pseudomonas aeruginosa [26]): 6.25 µg/mL
- Activity (Staphylococcus aureus [27]): Dose-Dependent Effect
- Activity (Klebsiella pneumoniae [28]): Dose-Dependent Effect
- inhibition (Staphylococcus aureus [29]): Dose-Dependent Effect
- inhibition (Klebsiella pneumoniae [30]): Dose-Dependent Effect
- inhibition at 0.39 µg/mL (Staphylococcus aureus [31]): 5.85%
- inhibition at 0.78 µg/mL (Staphylococcus aureus [32]): 45%
- inhibition at 12.5 µg/mL (Staphylococcus aureus [33]): 96.7%
- inhibition at 12.5 µg/mL (Klebsiella pneumoniae [34]): 93.9%
- Activity (Staphylococcus aureus [35]): 97.35%
- Activity (Staphylococcus aureus [36]): 62.14%
- Activity (Staphylococcus aureus [37]): 9.12%
- Activity (Klebsiella pneumoniae [38]): 10.44%
- Activity (Klebsiella pneumoniae [39]): 5.88%
- Activity (Klebsiella pneumoniae [40]): 4.13%
